Assay results taken from patent publication US9422238B2, “ICMT inhibitors” (National University of Singapore, priority 2012, dated 2016).
Values joined by “and” are separate entries in the source; they are usually repeats but may differ in a detail not shown here. Equal values may be shown once. Read-outs that look alike come from different tables or passages of the source.

Key:
[1] = target: T1, Isoprenylcysteine carboxyl methyltransferase (Icmt) (Homo sapiens, UniProt O60725); test: Icmt inhibition, scintillation proximity assay with BFC and [3H]SAM; type: biochemical; conditions: for IC50: read-out: IC50 Icmt
T1 construct: made in house; host or cells: Sf9 (Spodoptera frugiperda) insect cells; membrane preparation provided by Prof PJ Casey (Duke University / Duke-NUS)
T1 sequence (O60725 whole entry, species assumed): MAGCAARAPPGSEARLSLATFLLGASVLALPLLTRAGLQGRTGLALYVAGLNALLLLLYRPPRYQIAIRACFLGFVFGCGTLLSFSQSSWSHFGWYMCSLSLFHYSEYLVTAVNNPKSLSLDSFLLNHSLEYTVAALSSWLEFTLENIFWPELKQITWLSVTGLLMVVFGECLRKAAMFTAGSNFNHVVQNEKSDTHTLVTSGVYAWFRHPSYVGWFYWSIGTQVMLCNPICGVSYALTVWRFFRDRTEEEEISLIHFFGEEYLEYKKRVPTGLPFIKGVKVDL
Protocol: Isoprenylcysteine carboxyl methyltransferase (Icmt) was provided by Prof PJ Casey of Duke University, NC. S-Adenosylmethionine (SAM), magnesium chloride Hexahydrate (MgCl2), tartrazine, 4-(2-hydroxyethyl)-1-piperazineethanesulfonic acid (HEPES), dimethyl sulfoxide (DMSO) and dithiotreitol (DTT) were purchased from Sigma (Mo, USA). [^3H] S-Adenosylmethionine, [^3H] Biotin and Streptavidin PVT SPA Beads were purchased from PerkinElmer (Waltham, Mass.). Assays were performed in black small volume 384 well microtitre plates from PerkinElmer.
Stocks of Icmt membrane protein (30 μg/μL) stored at −80° C. were thawed at 37° C. and placed on ice. The Icmt membrane protein was diluted in assay buffer (70 mM HEPES, 100 mM NaCl, 5 mM Mg Cl2 and 3 mM DTT, pH 7.5) to a 0.03 μg/μL working concentration and added to the wells of a microtitre plate (5 μl/well). To each wells 20 μl of the reaction buffer was added. The reaction was initiated with the addition of 5 μL of substrate solution containing BFC (6 μM), SAM (3 μM) and 30 μCi/mL [^3H] SAM (all of these reagents were stored at −20° C., SAM reagents thawed on ice, BFC thawed at RT). The plate was incubated at 37° C. for 30 minutes. The reaction was stopped with the addition of 15 μL of stop solution containing SAM (150 μM) and Streptavidin SPA beads (20 mg/mL). Following overnight incubation at ambient temperature radioactivity was counted on a Microbeta Trilux™ (Perkin Elmer, Turku, Finland).
Sf9 (Spodoptera frugiperda ovarian) membranes containing recombinant Icmt were provided by Prof PJ Casey (Duke University, NC and Duke-NUS Graduate Medical School). S-Adenosylmethionine (SAM), magnesium chloride hexahydrate, tartrazine, 4-(2-hydroxyethyl)-1-piperazineethanesulfonic acid (HEPES) and dithiotreitol (DTT) were purchased from Sigma (Mo, USA). [^3H] S-Adenosylmethionine, [^3H] biotin and streptavidin PVT SPA Beads were purchased from PerkinElmer (Waltham, Mass.). Biotinylated farnesylcysteine was synthesized as described in an earlier report. Assays were performed in black 384-well microtitre plates from PerkinElmer.
A vial of Icmt membrane protein (30 μg/μL) stored at −80° C. was thawed at 37° C. and placed on ice. The protein was diluted in assay buffer (70 mM HEPES, 100 mM NaCl, 5 mM MgCl2, 3 mM DTT, pH 7.5) to 0.03 μg/μL and aliquots were added to each well (5 μL/well), followed by 20 μL of the assay buffer. The reaction was initiated by adding 5 μL of a solution containing biotinylated BFC (6 μM), SAM (3 μM) and 30 μCi/mL [^3H] SAM. These reagents were stored at −20° C. and thawed on ice (SAM, [^3H] SAM) or at room temperature (BFC). The plate was incubated at 37° C. for 30 minutes after which the reaction was quenched by adding 15 μL of a solution comprising SAM (150 μM) and streptavidin SPA beads (20 mg/mL). After overnight incubation at ambient temperature, radioactivity was counted (Microbeta Trilux™, Perkin Elmer, Turku, Finland). The degree of inhibition was assessed from the radioactivity obtained in presence of test compound compared to that obtained from the control sample […]. Two independent determinations were made for each test compound.

[2] = Parallel Artificial Membrane Permeability Assay (PAMPA); conditions: for Papp at 16 h: PAMPA, pH 7.4
Protocol: Briefly, determinations were carried out on MultiScreen-IP PAMPA assay (donor) plates (MAIPNTR10) and MultiScreen Receiver Plates (MATRNPS50) from Millipore Corporation (USA) with 1% lecithin (L-α-phosphatidylcholine from lyophilized powder of egg yolk, Sigma Aldrich, USA) in dodecane (ReagentPlus®, Sigma Aldrich, USA) as lipid barrier. 5 μL of 1% lecithin in dodecane was dispensed into the wells of the donor plates. […] The mobile phase was Milli-Q water (0.1% formic acid) and acetonitrile (0.1% formic acid), run on gradient.
Pe was obtained from Equation 1:
[formula] Where VA and VD are the volumes of acceptor (cm^3) and donor (cm^3) wells respectively, A is the area of the surface area of the membrane (0.24 cm^2), t is the permeation time (s); S is the fraction of sample remaining in the donor and acceptor wells after permeation time and is determined from Equation 2, CA and CD are the concentrations (μM) of test/reference compound in acceptor and donor wells respectively.
The Pe of each compound was obtained from at least 3 separate experiments using no less than 2 different stock solutions. For each independent determination, triplicates (3 wells) were run for each compound.

[3] = tested on: Human lung fibroblast IMR90 cells; test: Cell viability on non-malignant cells (MTS, 72 h); type: cell-based
Protocol: Cell viability was determined from the expression:
The plot was constrained to ≧0 and ≦100%.
Human lung fibroblast IMR90 cells were purchased from ATCC (Rockville, Md.) and grown in Eagle's Minimal Essential Media (EMEM, Sigma Aldrich, Singapore) at 37° C., 5% CO2. […] Seeding density was maintained at 4000 cells per well.

[4] = tested on: PC3 Prostrate cancer cells; test: Antiproliferative activity / cell viability (MTS, 72 h); type: cell-based, human; conditions: Homo sapiens
Protocol: The relative number of the live cells was determined using the CellTiter® 96 AQueous One Solution Cell Proliferation Assay (Promega). Determinations were made in duplicates or triplicates.

[5] = Aggregation tendency by dynamic light scattering (DLS); type: physicochemical; conditions: for DLS count rate (kcps): 1% DMSO, potassium phosphate buffer 5 mM pH 7.4
Protocol: Stock solutions (10 mM) of test compounds prepared in DMSO, diluted to 1 mM with DMSO and then serially diluted with potassium phosphate buffer (5 mM, pH 7.4, prefiltered before use) to give final concentrations of 1 μM and 10 μM. Final concentration of DMSO was 1% v/v. Measurements were carried out on the Malvern Instrument Zetasizer Nano ZS system equipped with a 4 mW He—Ne laser at 633 nm and detector angle of 90°. Three or more determinations of derived count rates (kilocounts per second, kcps) were obtained from each concentration of test compound, using two separately prepared stock solutions. Data collection was carried out using the software supplied with the instrument. Results are represented as mean±standard deviation. The positive control was benzyl benzoate (250 μM) which gave a count rate of 1180 kcps (±35). The vehicle (phosphate buffer, 1% DMSO) gave a reading of 14.9±0.4.

[6] = Table 3, mean of two or more determinations (SD)
[7] = IMR-90, further testing, 72 h, mean (SD), read-out: IC50 IMR90
[8] = PC-3M, Table 3, 72 h, mean (SD), read-out: IC50 PC3
[9] = Table 6, from earlier table, read-out: IC50 (μM) PC3

SMILES	IC50 [1, 6] [nM]	IC50 ([1]; further testing, mean (SD)) [nM]	Papp at 16 h [2] [×10⁻⁶ cm/s]	PAMPA Pe (×10^−6 cm/s) ([2]; pH 7.4, 16 h agitation, 1% lecithin in dodecane)	IC50 ([3]; IMR-90, Table 6, mean (SD), read-out: IC50 (μM) IMR90) [µM]	IC50 [3, 7] [µM]	IC50 [4, 8] [µM]	IC50 [4, 9] [µM]	DLS count rate (kcps) ([5]; 1 μM)	DLS count rate (kcps) ([5]; 10 μM)	fold increase in light scattering ([5]; concentration increased from 1 μM to 10 μM)	fold higher IC50 Icmt than cysmethynil ([1]; ratio of IC50 Icmt)
CCCCCCCCn1cc(CN(CC)CC)c2cc(-c3cnc(N)nc3)ccc21 [Compound 8-12, 5-(3-Diethylaminomethyl-1-octyl-1H-indol-5-yl)-pyrimidin-2-ylamine]	780	860	14.2	14.2 ×10^−6 cm/s and 14.2 (±1.4) ×10^−6 cm/s	2.65	2.65	2.55	2.55	24.5	53.3	2	–
CCCCCCCCn1c2c(c3cc(-c4cnc(N)nc4)ccc31)CN(C)CC2 [Compound 305, 8-(2′-amino-pyrimidin-5′-yl)-2-methyl-5-n-octyl-1,2,3,4-tetrahydropyrido[4,3-b]indole]	3300	–	19.7 ± 0.56	–	–	5.29	4.31	–	21.0	29.0	–	about 2
CCCCCCCCn1cc(CC(N)=O)c2cc(-c3cccc(C)c3)ccc21 [Cysmethynil, 2-[5-(3-methylphenyl)-1-octyl-1H-indolo-3-yl]acetamide, reference compound]	1800	1900	–	–	–	–	24.8	25.2	22.6	164.0	–	–
